Where a name gives a salt, the structure may show the parent alone.
Experiments:
Format in all cases: physicochemical
[1] = release of doxorubicin hydrochloride from hydrogel of hyaluronic acid with 1,4-diethynylbenzene; conditions: hydrogel of HA (product 1) with 1,4-diethynylbenzene, catalytic CuSO4.5H2O and ascorbic acid, Example 13; release in 100 ml distilled water
Experimental: (§1) 100 mg of product 1 are dissolved in 1.1 ml of distilled water and 3 mg of 1,4-Diethynylbenzene are dissolved separately in 0.2 ml of DMSO, whereas 23.2 mg of doxorubicin hydrochloride are dissolved in 0.5 ml of distilled water. The three solutions are mixed, 0.1 ml of an aqueous solution obtained with 50 mg of CuSO4.5H2O in 1 ml of H2O and 0.1 ml of an aqueous solution of 20 mg of ascorbic acid are then added. The mixture is stirred vortically for a few minutes. The rapidly formed gel (see FIG. 26) incorporates the doxorubicin hydrochloride inside.
(§2) The quantity of doxorubicin hydrochloride released from the hydrogel, in 100 ml of distilled water, is determined by means of U.V. spectrophotometric measurements at λ=486 nm by interpolation of the absorbance values on a calibration line constructed using solutions of the drug at known concentration.
The release measurements of the drug are effected on the hydrogel described above.

[2] = release of doxorubicin hydrochloride from hydrogel of hyaluronic acid with 1,8-Nonadiyne; conditions: hydrogel of HA (product 1) with 1,8-Nonadiyne, catalytic CuSO4.5H2O and ascorbic acid, Example 13; release in 100 ml distilled water
Experimental: as §1, with “water; a solution” for “water and 3 mg”, “200 μl of 1,8-Nonadiyne” for “1,4-Diethynylbenzene are dissolved separately”, “11.23” for “0.2”, “DMSO are prepared separately,” for “DMSO,”, “solution of hyaluronic acid is mixed with that of doxorubicin and with 0.2 ml of that of 1,8-Nonadiyne;” for “three solutions are mixed,”, “31)” for “26)”
as §2
(§3) The release measurements of the drug are performed on the hydrogel described above.

[3] = release of doxorubicin hydrochloride from hydrogel of hyaluronic acid with 1,6-heptadiyne; conditions: hydrogel of HA (product 1) with 1,6-heptadiyne, catalytic CuSO4.5H2O and ascorbic acid, Example 13; release in 100 ml distilled water
Experimental: as §1, with “water; a solution” for “water and 3 mg”, “140 μl of 1,6-Heptadiyne” for “1,4-Diethynylbenzene are dissolved separately”, “9.86” for “0.2”, “DMSO are prepared separately,” for “DMSO,”, “solution of hyaluronic acid is mixed with that of doxorubicin and with 0.2 ml of that of 1,6-Heptadiyne;” for “three solutions are mixed,”, “28)” for “26)”
as §2

[4] = release of doxorubicin hydrochloride from hydrogel of crosslinked hyaluronic acid obtained with catalytic CuCl; conditions: hydrogel of HA (product 1 + product 2) crosslinked with catalytic CuCl, Example 11; release in 100 ml distilled water
Experimental: 29 mg of doxorubicin hydrochloride are dissolved in 2 ml of water and 50 mg of product 1 and 50 mg of product 2 synthesized as described above, are then added. 830 μL of a 1% w/V solution of CuCl are subsequently added to the solution and the gel is formed after a few minutes directly incorporating the drug present in solution.
The quantity of doxorubicin hydrochloride released from the hydrogel in 100 ml of distilled water, is determined by U.V. spectrophotometric measurements at λ=486 nm by interpolation of the absorbance values on a calibration line constructed using solutions of the drug at known concentration.
as §3

[5] = release of benzydamine hydrochloride from hydrogel of crosslinked hyaluronic acid obtained with catalytic CuCl; conditions: hydrogel of HA (product 1 + product 2) crosslinked with catalytic CuCl, Example 11; release in 100 ml phosphate buffer solution pH=7.4
Experimental: 69 mg of benzydamine hydrochloride are dissolved in 2 ml of water and 50 mg of product 1 and 50 mg of product 2 synthesized as described above, are then added.
830 μL of a 1% w/V solution of CuCl are subsequently added to the solution and the gel is formed after a few minutes directly incorporating the drug.
The quantity of benzydamine hydrochloride released from the hydrogel, in 100 ml of a phosphate buffer solution pH=7.4, is determined by means of U.V. spectrophotometric measurements at λ=308 nm by interpolation of the absorbance values on a calibration line constructed using solutions of the drug at a known concentration.
as §3

[6] = release of benzydamine hydrochloride from hydrogel of hyaluronic acid with 1,6-Heptadiyne; conditions: hydrogel of HA (product 1) with 1,6-heptadiyne, catalytic CuSO4.5H2O and ascorbic acid, Example 13; release in 100 ml distilled water
Experimental: 100 mg of product 1 are dissolved in 1.1 ml of distilled water; a solution of 140 μl of 1,6-Heptadiyne in 9.86 ml of DMSO are prepared separately, whereas 13.8 mg of benzydamine hydrochloride are dissolved in 0.5 ml of distilled water. The solution of hyaluronic acid is mixed with that of benzydamine and with 0.2 ml of that of 1,6-Heptadiyne; 0.1 ml of an aqueous solution obtained with 50 mg of CuSO4.5H2O in 1 ml of H2O and 0.1 mL of an aqueous solution of 20 mg of ascorbic acid are then added. The mixture is stirred vortically for a few minutes. The rapidly formed gel incorporates the benzydamine hydrochloride inside.
as §2, with “benzydamine” for “doxorubicin”, “λ=308” for “λ=486”

[7] = release of benzydamine hydrochloride from hydrogel of crosslinked hyaluronic acid obtained with catalytic CuSO4.5H2O; conditions: hydrogel of HA (product 1 + product 2) crosslinked with catalytic CuSO4.5H2O and ascorbic acid, Example 11; release in 100 ml distilled water
Experimental: 50 mg of product 1 and 50 mg of product 2 are dissolved in 1.3 ml of distilled water and separately 13.8 mg of benzydamine hydrochloride are dissolved in 0.5 ml of distilled water. The solution of hyaluronic acid is mixed with that of benzydamine hydrochloride; 0.1 ml of an aqueous solution obtained with 50 mg of CuSO4.5H2O in 1 ml of H2O and 0.1 ml of an aqueous solution of 20 mg of ascorbic acid are then added.
The mixture is stirred vortically for a few minutes. The rapidly formed gel incorporates the benzydamine hydrochloride inside.
as §2, with “benzydamine” for “doxorubicin”, “λ=308” for “λ=486”
as §3

maximum quantity released, of the quantity of drug initially incorporated in the gel [1]	period over which the maximum quantity of drug is released [1]	maximum quantity released, of the quantity of drug initially incorporated in the gel [2]	period over which the maximum quantity of drug is released [2]	maximum quantity released, of the quantity of drug initially incorporated in the gel [3]	period over which the maximum quantity of drug is released [3]	maximum quantity released, of the quantity of drug initially incorporated in the gel [4]	period over which the maximum quantity of drug is released [4]	maximum quantity released, of the quantity of drug initially incorporated in the gel [5]	period over which the maximum quantity of drug is released [5]	maximum quantity released, of the quantity of drug initially incorporated in the gel [6]	period over which the maximum quantity of drug is released [6]	maximum quantity released, of the quantity of drug initially incorporated in the gel [7]	period over which the maximum quantity of drug is released [7]	SMILES
50%	about 50 h	14%	about 100 h	23%	about 250 h	25%	about 160 h	–	–	–	–	–	–	COc1cccc2c1C(=O)c1c(O)c3c(c(O)c1C2=O)C[C@@](O)(C(=O)CO)C[C@@H]3O[C@H]1C[C@H](N)[C@H](O)[C@H](C)O1 [doxorubicin hydrochloride]
–	–	–	–	–	–	–	–	88%	about 3.5 h	80%	about 6 h	70%	about 5 h	CN(C)CCCOc1nn(Cc2ccccc2)c2ccccc12 [benzydamine hydrochloride]

Reference: US8512752B2, “Hyaluronic acid derivatives obtained via “click chemistry” crosslinking” (Fidia Farmaceutici S.p.A., priority 2006, dated 2013)
